From patent publication US20250186463A1, “ABIRATERONE DECANOATE PRODRUGS AND USE IN THERAPY” (PROPELLA THERAPEUTICS, INC., priority 2022, published 2025)

Experiments:
serum testosterone = assay: Phase 1/2a open-label study of i.m. abiraterone decanoate depot in advanced prostate cancer: serum testosterone; format: in vivo, human; conditions: for serum testosterone reduction from baseline: day 168
Description: This is a Phase 1/2a, Open-label, Multicenter Study of Intramuscular Abiraterone Decanoate Depot in Patients with Advanced Prostate Cancer.
(§1) Formulations and dosing regimen: The formulation used in the study (abiraterone decanoate for intramuscular [i.m.] injection) is a solution formulation of abiraterone decanoate at a concentration of 180 mg/mL and will be provided as a 10 mL vial containing 990 mg of abiraterone decanoate in 5.5 mL of solution. See further details of the formulations in Example 2 (for each milliliter: Abiraterone Decanoate, about 180 mg/mL; Benzyl Alcohol, about 100 mg/mL; Benzyl Benzoate, about 200 mg/mL; and Corn oil, q.s. to 1 mL). Abiraterone Decanoate will be administered as an i.m. injection every 84 days (±3 days). Dose escalation will proceed with a modified Fibonacci sequence. Based on emerging data, intermediate doses may be evaluated.
Study Design: This is a Phase 1/2a, Open-label, Multicenter Study of Intramuscular Abiraterone Decanoate Depot in Patients with Advanced Prostate Cancer. In Phase 1, all patients will receive i.m. Abiraterone Decanoate depot in 84-day treatment cycles combined with daily oral prednisone or dexamethasone. In Phase 2a, patients will be randomized 1:1 and treated with i.m. Abiraterone Decanoate depot in 84-day treatment cycles in combination with dexamethasone (Arm A) or abiraterone acetate daily+prednisone (Arm B). In both Phases, patients will undergo scheduled periodic assessments of serum testosterone levels. Participants may continue treatment until they meet any discontinuation criteria outlined in the protocol.
Phase 1—Dose Escalation: Eligible patients with metastatic castration-sensitive prostate cancer (mCSPC) and patients with metastatic castration-resistant prostate cancer (mCRPC) will be enrolled. The initial dose of Abiraterone Decanoate to be administered is based on findings from completed non-human primate toxicology and pharmacology studies; dose escalation will proceed in a modified Fibonacci sequence. A Safety Review Committee (SRC) will be established to review available cohort safety data, and pharmacokinetic and pharmacodynamic findings (particularly testosterone suppression) to recommend a decision on dose escalation including whether intermediate doses should be explored.
Pharmacodynamic Analysis: Determination of Prostate Specific Antigen (PSA), serum testosterone, dehydroepiandrosterone (DHEA), dehydroepiandrosterone sulfate (DHEA-S), androstenedione, dihydrotestosterone (DHT), progesterone, cortisol, adrenocorticotropic hormone (ACTH), corticosterone, 11-dexoycorticosterone (11-DOC) and 11-deoxycortisol.
Based on the available data, the recommended dose for Phase 2 is about 1260 mg abiraterone decanoate once every three months (12 weeks). All cohorts 1 and 2 in this clinical study were treated with prednisone, 5 mg orally once or twice daily; and all cohorts 3-5 were treated with dexamethasone, 0.5 mg orally once daily. The results shown herein for these cohorts should be understood accordingly.
The median baseline T level, calculated from mean of screening and Day 1 of Cycle 1 pre-dose samples, was 7.45 ng/dL.

[1] = Animal studies of intramuscular abiraterone decanoate: liver toxicity; format: in vivo; conditions: intramuscular administration, tested doses
[2] = Phase 1/2a study: plasma pharmacokinetics; format: in vivo, human; conditions: cohort 3 (720 mg), patient 08-1301, all values
Description: as §1
Pharmacokinetic results: the partial results from pharmacokinetic analysis for cohorts 1, 2, 3, 4, and 5 (180 mg, 360 mg, 720 mg, 1260 mg, and 1800 mg abiraterone decanoate, respectively) are shown in FIGS. 4A-4E. […] And for abiraterone decanoate, minimal increase in AbiDec for 08-1301 was observed which declined to 0 ng/ml thereafter.

**Q.** What does the source list for `CCCCCCCCCC(=O)O[C@H]1CC[C@@]2(C)C(=CC[C@@H]3[C@@H]2CC[C@]2(C)C(c4cccnc4)=CC[C@@H]32)C1` [abiraterone decanoate]?
**A.** Serum Testosterone (% CFB) (serum testosterone; Cohort 1, 180 mg i.m., Study Day 1 (baseline)): 0%; Serum Testosterone (% CFB) (serum testosterone; Cohort 1, 180 mg i.m., Study Day 2): −33%; Serum Testosterone (% CFB) (serum testosterone; Cohort 1, 180 mg i.m., Study Day 3): −42%; Serum Testosterone (% CFB) (serum testosterone; Cohort 1, 180 mg i.m., Study Day 5): −48%; Serum Testosterone (% CFB) (serum testosterone; Cohort 1, 180 mg i.m., Study Day 7): −52%; Serum Testosterone (% CFB) (serum testosterone; Cohort 1, 180 mg i.m., Study Day 10): −61%; Serum Testosterone (% CFB) (serum testosterone; Cohort 1, 180 mg i.m., Study Day 14): −67%; Serum Testosterone (% CFB) (serum testosterone; Cohort 1, 180 mg i.m., Study Day 21): −71%; Serum Testosterone (% CFB) (serum testosterone; Cohort 1, 180 mg i.m., Study Day 28): −73%; Serum Testosterone (% CFB) (serum testosterone; Cohort 1, 180 mg i.m., Study Day 42): −65%; Serum Testosterone (% CFB) (serum testosterone; Cohort 1, 180 mg i.m., Study Day 56): −55%; Serum Testosterone (% CFB) (serum testosterone; Cohort 1, 180 mg i.m., Study Day 70): −47%; Serum Testosterone (% CFB) (serum testosterone; Cohort 2, 360 mg i.m., Study Day 1 (baseline)): 0%; Serum Testosterone (% CFB) (serum testosterone; Cohort 2, 360 mg i.m., Study Day 2): −11%; Serum Testosterone (% CFB) (serum testosterone; Cohort 2, 360 mg i.m., Study Day 3): 0%; Serum Testosterone (% CFB) (serum testosterone; Cohort 2, 360 mg i.m., Study Day 5): −28%; Serum Testosterone (% CFB) (serum testosterone; Cohort 2, 360 mg i.m., Study Day 7): −49%; Serum Testosterone (% CFB) (serum testosterone; Cohort 2, 360 mg i.m., Study Day 10): −51%; Serum Testosterone (% CFB) (serum testosterone; Cohort 2, 360 mg i.m., Study Day 14): −67%; Serum Testosterone (% CFB) (serum testosterone; Cohort 2, 360 mg i.m., Study Day 21): −72%; Serum Testosterone (% CFB) (serum testosterone; Cohort 2, 360 mg i.m., Study Day 28): −71%; Serum Testosterone (% CFB) (serum testosterone; Cohort 2, 360 mg i.m., Study Day 42): −64%; Serum Testosterone (% CFB) (serum testosterone; Cohort 2, 360 mg i.m., Study Day 56): −60%; Serum Testosterone (% CFB) (serum testosterone; Cohort 2, 360 mg i.m., Study Day 70): −56%; Serum Testosterone (% CFB) (serum testosterone; Cohort 2, 360 mg i.m., Study Day 77): −56%; Serum Testosterone (% CFB) (serum testosterone; Cohort 2, 360 mg i.m., Study Day 84): −49%; Serum Testosterone (% CFB) (serum testosterone; Cohort 2, 360 mg i.m., Study Day 112): −79%; Serum Testosterone (% CFB) (serum testosterone; Cohort 2, 360 mg i.m., Study Day 140): −63%; Serum Testosterone (% CFB) (serum testosterone; Cohort 2, 360 mg i.m., Study Day 168): −32%; Serum Testosterone (% CFB) (serum testosterone; Cohort 2, 360 mg i.m., Study Day 196): −56%; Serum Testosterone (% CFB) (serum testosterone; Cohort 3, 720 mg i.m., Study Day 1 (baseline)): 0%; Serum Testosterone (% CFB) (serum testosterone; Cohort 3, 720 mg i.m., Study Day 2): −41%; Serum Testosterone (% CFB) (serum testosterone; Cohort 3, 720 mg i.m., Study Day 3): −50%; Serum Testosterone (% CFB) (serum testosterone; Cohort 3, 720 mg i.m., Study Day 5): −48%; Serum Testosterone (% CFB) (serum testosterone; Cohort 3, 720 mg i.m., Study Day 7): −65%; Serum Testosterone (% CFB) (serum testosterone; Cohort 3, 720 mg i.m., Study Day 10): −74%; Serum Testosterone (% CFB) (serum testosterone; Cohort 3, 720 mg i.m., Study Day 14): −82%; Serum Testosterone (% CFB) (serum testosterone; Cohort 3, 720 mg i.m., Study Day 21): −87%; Serum Testosterone (% CFB) (serum testosterone; Cohort 3, 720 mg i.m., Study Day 28): −85%; Serum Testosterone (% CFB) (serum testosterone; Cohort 3, 720 mg i.m., Study Day 42): −81%; Serum Testosterone (% CFB) (serum testosterone; Cohort 3, 720 mg i.m., Study Day 56): −83%; Serum Testosterone (% CFB) (serum testosterone; Cohort 3, 720 mg i.m., Study Day 70): −81%; Serum Testosterone (% CFB) (serum testosterone; Cohort 3, 720 mg i.m., Study Day 77): −80%; Serum Testosterone (% CFB) (serum testosterone; Cohort 3, 720 mg i.m., Study Day 84): −76%; Serum Testosterone (% CFB) (serum testosterone; Cohort 3, 720 mg i.m., Study Day 112): −94%; Serum Testosterone (% CFB) (serum testosterone; Cohort 3, 720 mg i.m., Study Day 140): −88%; Serum Testosterone (% CFB) (serum testosterone; Cohort 3, 720 mg i.m., Study Day 168): −80%; Serum Testosterone (% CFB) (serum testosterone; Cohort 3, 720 mg i.m., Study Day 196): −93%; Serum Testosterone (% CFB) (serum testosterone; Cohort 4, 1260 mg i.m., Study Day 1 (baseline)): 0%; Serum Testosterone (% CFB) (serum testosterone; Cohort 4, 1260 mg i.m., Study Day 2): −51%; Serum Testosterone (% CFB) (serum testosterone; Cohort 4, 1260 mg i.m., Study Day 3): −65%; Serum Testosterone (% CFB) (serum testosterone; Cohort 4, 1260 mg i.m., Study Day 5): −69%; Serum Testosterone (% CFB) (serum testosterone; Cohort 4, 1260 mg i.m., Study Day 7): −79%; Serum Testosterone (% CFB) (serum testosterone; Cohort 4, 1260 mg i.m., Study Day 10): −79%; Serum Testosterone (% CFB) (serum testosterone; Cohort 4, 1260 mg i.m., Study Day 14): −80%; Serum Testosterone (% CFB) (serum testosterone; Cohort 4, 1260 mg i.m., Study Day 21): −88%; Serum Testosterone (% CFB) (serum testosterone; Cohort 4, 1260 mg i.m., Study Day 28): −89%; Serum Testosterone (% CFB) (serum testosterone; Cohort 4, 1260 mg i.m., Study Day 42): −90%; Serum Testosterone (% CFB) (serum testosterone; Cohort 4, 1260 mg i.m., Study Day 56): −89%; Serum Testosterone (% CFB) (serum testosterone; Cohort 4, 1260 mg i.m., Study Day 70): −80%; Serum Testosterone (% CFB) (serum testosterone; Cohort 4, 1260 mg i.m., Study Day 77): −87%; Serum Testosterone (% CFB) (serum testosterone; Cohort 4, 1260 mg i.m., Study Day 84): −83%; Serum Testosterone (% CFB) (serum testosterone; Cohort 4, 1260 mg i.m., Study Day 112): −93%; Serum Testosterone (% CFB) (serum testosterone; Cohort 4, 1260 mg i.m., Study Day 140): −89%; Serum Testosterone (% CFB) (serum testosterone; Cohort 4, 1260 mg i.m., Study Day 168): −86%; Serum Testosterone (% CFB) (serum testosterone; Cohort 4, 1260 mg i.m., Study Day 196): −97%; Serum Testosterone (% CFB) (serum testosterone; Cohort 5, 1800 mg i.m., Study Day 1 (baseline)): 0%; Serum Testosterone (% CFB) (serum testosterone; Cohort 5, 1800 mg i.m., Study Day 2): −41%; Serum Testosterone (% CFB) (serum testosterone; Cohort 5, 1800 mg i.m., Study Day 3): −46%; Serum Testosterone (% CFB) (serum testosterone; Cohort 5, 1800 mg i.m., Study Day 5): −62%; Serum Testosterone (% CFB) (serum testosterone; Cohort 5, 1800 mg i.m., Study Day 7): −76%; Serum Testosterone (% CFB) (serum testosterone; Cohort 5, 1800 mg i.m., Study Day 10): −79%; Serum Testosterone (% CFB) (serum testosterone; Cohort 5, 1800 mg i.m., Study Day 14): −85%; Serum Testosterone (% CFB) (serum testosterone; Cohort 5, 1800 mg i.m., Study Day 21): −88%; Serum Testosterone (% CFB) (serum testosterone; Cohort 5, 1800 mg i.m., Study Day 28): −88%; Serum Testosterone (% CFB) (serum testosterone; Cohort 5, 1800 mg i.m., Study Day 42): −93%; Serum Testosterone (% CFB) (serum testosterone; Cohort 5, 1800 mg i.m., Study Day 56): −79%; Serum Testosterone (% CFB) (serum testosterone; Cohort 5, 1800 mg i.m., Study Day 70): −87%; Serum Testosterone (% CFB) (serum testosterone; Cohort 5, 1800 mg i.m., Study Day 77): −88%; Serum Testosterone (% CFB) (serum testosterone; Cohort 5, 1800 mg i.m., Study Day 84): −88%; Serum Testosterone (% CFB) (serum testosterone; Cohort 5, 1800 mg i.m., Study Day 112): −83%; Serum Testosterone (% CFB) (serum testosterone; Cohort 5, 1800 mg i.m., Study Day 140): −96%; Serum Testosterone (% CFB) (serum testosterone; Cohort 5, 1800 mg i.m., Study Day 168): −95%; Serum Testosterone (% CFB) (serum testosterone; Cohort 5, 1800 mg i.m., Study Day 196): −98%; decline in testosterone (serum testosterone; Patient 1, cohort 1, 180 mg, treatment days 21-56): 59-61%; androgen suppression (serum testosterone; Patient 2, cohort 2, 360 mg, progressed after Xtandi, FIG. 6): sustained androgen suppression; serum testosterone reduction from baseline (serum testosterone; cohort 3 (720 mg)): 80%; serum testosterone reduction from baseline (serum testosterone; cohort 4 (1260 mg)): 86%; serum testosterone reduction from baseline (serum testosterone; cohort 5 (1800 mg)): up to 95%; patients with a 90% reduction in testosterone levels compared to baseline or values reduced to ≤1 ng/dL (serum testosterone; patients dosed at 720 mg and above, day 28): 13 out of 16; liver toxicity [1]: no liver toxicity was observed; plasma abiraterone values [2]: below the LLOQ
